Patent US20240366589A1, “NHE3-BINDING COMPOUNDS AND METHODS FOR INHIBITING PHOSPHATE TRANSPORT” (Ardelyx, Inc., priority 2013, published 2024)

What was measured:
Human NHE3 = molecular target: T1, Human NHE3 (Homo sapiens, UniProt P48764); assay: Cell-based NHE3 activity under prompt conditions (OK cells, BCECF pH recovery), human NHE3; conditions: prompt conditions
T1 construct: expressed in transfected cells; host or cells: Opossum kidney (OK) cells (ATCC), electroporation
T1 sequence (P48764 26-834): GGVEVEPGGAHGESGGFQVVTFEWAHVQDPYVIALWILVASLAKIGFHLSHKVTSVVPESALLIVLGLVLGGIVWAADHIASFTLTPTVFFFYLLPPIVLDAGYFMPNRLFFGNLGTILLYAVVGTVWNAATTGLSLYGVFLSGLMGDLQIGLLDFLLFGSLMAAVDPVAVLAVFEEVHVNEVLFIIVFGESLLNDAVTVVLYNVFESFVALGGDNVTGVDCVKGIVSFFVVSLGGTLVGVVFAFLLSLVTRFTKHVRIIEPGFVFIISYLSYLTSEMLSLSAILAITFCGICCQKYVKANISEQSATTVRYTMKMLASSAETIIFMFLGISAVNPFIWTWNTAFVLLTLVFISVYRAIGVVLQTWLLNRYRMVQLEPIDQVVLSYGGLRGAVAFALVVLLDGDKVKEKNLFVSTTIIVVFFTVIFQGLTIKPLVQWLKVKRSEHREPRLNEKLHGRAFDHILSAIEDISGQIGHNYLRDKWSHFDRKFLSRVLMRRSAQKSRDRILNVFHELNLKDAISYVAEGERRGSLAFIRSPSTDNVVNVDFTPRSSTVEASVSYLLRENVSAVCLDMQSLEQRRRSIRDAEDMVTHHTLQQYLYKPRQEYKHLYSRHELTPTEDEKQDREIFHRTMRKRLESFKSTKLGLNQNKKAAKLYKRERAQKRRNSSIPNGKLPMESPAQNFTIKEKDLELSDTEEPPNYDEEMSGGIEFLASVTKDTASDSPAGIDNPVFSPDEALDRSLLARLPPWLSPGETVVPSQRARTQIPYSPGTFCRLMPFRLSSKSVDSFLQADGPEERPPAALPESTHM
Procedure, shortened: (§1)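 Opossum kidney cells transfected with rat or human NHE3 underwent ammonium prepulse (20 mM NH4Cl, pH 7.4, 30 min) then 10 min in Na+-free buffer, room temperature.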

Rat NHE3 = molecular target: T2, Rat NHE3 (Rattus norvegicus, UniProt P26433); assay: Cell-based NHE3 activity under prompt conditions (OK cells, BCECF pH recovery), rat NHE3; conditions: prompt conditions; for IC50: read-out: Prompt Rat NHE3 pIC50 (converted)
T2 construct: expressed in transfected cells; host or cells: Opossum kidney (OK) cells (ATCC), electroporation
T2 sequence (P26433 29-831): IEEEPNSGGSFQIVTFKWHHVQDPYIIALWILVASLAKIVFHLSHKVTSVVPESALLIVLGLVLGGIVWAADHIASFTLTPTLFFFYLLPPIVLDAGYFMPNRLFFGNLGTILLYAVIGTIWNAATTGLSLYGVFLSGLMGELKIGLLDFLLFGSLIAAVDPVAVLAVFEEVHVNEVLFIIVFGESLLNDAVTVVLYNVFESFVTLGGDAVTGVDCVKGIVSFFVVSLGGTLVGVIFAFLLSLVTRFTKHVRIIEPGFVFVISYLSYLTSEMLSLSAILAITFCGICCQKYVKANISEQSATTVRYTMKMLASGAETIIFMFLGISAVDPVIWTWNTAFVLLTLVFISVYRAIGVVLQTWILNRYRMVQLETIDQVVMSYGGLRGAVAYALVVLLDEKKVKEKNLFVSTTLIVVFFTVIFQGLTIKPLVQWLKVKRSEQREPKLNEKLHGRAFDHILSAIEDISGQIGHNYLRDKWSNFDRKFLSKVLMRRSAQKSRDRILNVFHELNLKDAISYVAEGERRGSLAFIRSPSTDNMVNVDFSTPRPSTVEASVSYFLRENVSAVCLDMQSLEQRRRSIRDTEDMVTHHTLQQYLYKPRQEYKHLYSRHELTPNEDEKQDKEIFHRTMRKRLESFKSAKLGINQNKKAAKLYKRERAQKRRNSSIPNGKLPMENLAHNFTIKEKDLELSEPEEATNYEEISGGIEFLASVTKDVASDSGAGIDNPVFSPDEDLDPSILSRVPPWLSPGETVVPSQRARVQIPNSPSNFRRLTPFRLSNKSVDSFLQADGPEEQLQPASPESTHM
Procedure, shortened: as §1

[1] = test system: absorption of sodium from the intestinal lumen; assay: Inhibition of intestinal sodium absorption: urinary sodium (uNa) 16 h after single oral dose in rats; format: in vivo, rat; conditions: oral gavage, 16 h post-dose
Procedure, shortened: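 Urinary sodium mass over the 16 h after one oral gavage dose, measured by cation-exchange ion chromatography, reported as percent of water-vehicle group; ANOVA plus Dunnett's post hoc test. Groups of six 8-week-old Sprague-Dawley rats, housed individually in metabolic cages post-dose, fed and watered freely.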

[2] = test system: phosphorus and calcium levels in the urine of rats; assay: Urinary excretion of phosphate and calcium in rats (16 h overnight urine); format: in vivo, rat; conditions: rats, oral gavage, 16 h post-dose
[3] = test system: absorption of sodium from the intestinal lumen; assay: Fecal form score (FFS) 16 h after oral dose in rats; format: in vivo, rat; conditions: oral gavage, 16 h post-dose, scale 1-5
Procedure, shortened: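 Fecal form was scored at 16 h post-dose on a 1–5 wetness scale (normal pellet to liquid stream), with two independent observations averaged across six rats per group. Animals were 8-week-old Sprague-Dawley rats given test compound or water orally in the late afternoon and kept in metabolic cages.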

CN1Cc2c(Cl)cc(Cl)cc2[C@H](c2cccc(S(=O)(=O)NCCOCCOCCOCCNC(=O)CN(CC(=O)NCCOCCOCCOCCNS(=O)(=O)c3cccc([C@@H]4CN(C)Cc5c(Cl)cc(Cl)cc54)c3)[C@@H]3CCCC[C@H]3N(CC(=O)NCCOCCOCCOCCNS(=O)(=O)c3cccc([C@@H]4CN(C)Cc5c(Cl)cc(Cl)cc54)c3)CC(=O)NCCOCCOCCOCNS(=O)(=O)c3cccc([C@@H]4CN(C)Cc5c(Cl)cc(Cl)cc54)c3)c2)C1 [compound 71]
Prompt Human NHE3 pIC50 (Human NHE3): 7.00 | Prompt Rat NHE3 pIC50 (Rat NHE3): 6.50 | Urine Na % of control ([1]; dose 10 mg/kg): 80% | Urine P % of control ([2]; dose 10 mg/kg): 40% | Fecal Form Score average ([3]; dose 10 mg/kg): 1

O=C(NCCCCNC(=O)NCCOCCOCCOCCNS(=O)(=O)c1ccc(O[C@H]2c3ccccc3C[C@@H]2N2CCCCC2)cc1)NCCOCCOCCOCCNS(=O)(=O)c1ccc(O[C@H]2c3ccccc3C[C@@H]2N2CCCCC2)cc1 [compound 72]
Prompt Human NHE3 pIC50 (Human NHE3): 8.25 | IC50 (Rat NHE3): 5.01 nM | Urine Na % of control ([1]; dose 1 mg/kg): 82% | Urine Na % of control ([1]; dose 3 mg/kg): 74% | Urine Na % of control ([1]; dose 10 mg/kg): 33% | Urine P % of control ([2]; dose 1 mg/kg): 99% | Urine P % of control ([2]; dose 3 mg/kg): 115% | Urine P % of control ([2]; dose 10 mg/kg): 43% | Fecal Form Score average ([3]; dose 1 mg/kg): 1 | Fecal Form Score average ([3]; dose 3 mg/kg): 2 | Fecal Form Score average ([3]; dose 10 mg/kg): 1

CN1Cc2c(Cl)cc(Cl)cc2[C@H](c2cccc(S(=O)(=O)NCCOCCOCCOCCn3cc(CN(Cc4cn(CCOCCOCCOCCNS(=O)(=O)c5cccc([C@@H]6CN(C)Cc7c(Cl)cc(Cl)cc76)c5)nn4)Cc4cnnn4CCOCCOCCOCCNS(=O)(=O)c4cccc([C@@H]5CN(C)Cc6c(Cl)cc(Cl)cc65)c4)nn3)c2)C1 [compound 73]
Prompt Human NHE3 pIC50 (Human NHE3): 6.30 | Prompt Rat NHE3 pIC50 (Rat NHE3): 5.30 | Urine Na % of control ([1]; dose 10 mg/kg): 74% | Urine P % of control ([2]; dose 10 mg/kg): 49% | Fecal Form Score average ([3]; dose 10 mg/kg): 2

CN1Cc2c(Cl)cc(Cl)cc2[C@H](c2cccc(S(=O)(=O)NCCOCCOCCNC(=O)CN(CC(=O)NCCOCCOCCNS(=O)(=O)c3cccc([C@@H]4CN(C)Cc5c(Cl)cc(Cl)cc54)c3)CC(=O)NCCOCCOCCNS(=O)(=O)c3cccc([C@@H]4CN(C)Cc5c(Cl)cc(Cl)cc54)c3)c2)C1 [compound 74]
Prompt Human NHE3 pIC50 (Human NHE3): 6.80 | Prompt Rat NHE3 pIC50 (Rat NHE3): 6.30 | Urine Na % of control ([1]; dose 10 mg/kg): 30% | Urine P % of control ([2]; dose 10 mg/kg): 44% | Fecal Form Score average ([3]; dose 10 mg/kg): 3

CN1Cc2c(Cl)cc(Cl)cc2[C@H](c2cccc(S(=O)(=O)NCCOCCOCCNC(=O)NCCN(CCNC(=O)NCCOCCOCCNS(=O)(=O)c3cccc([C@@H]4CN(C)Cc5c(Cl)cc(Cl)cc54)c3)CCNC(=O)NCCOCCOCCNS(=O)(=O)c3cccc([C@@H]4CN(C)Cc5c(Cl)cc(Cl)cc54)c3)c2)C1 [compound 76]
Prompt Human NHE3 pIC50 (Human NHE3): 6.40 | Prompt Rat NHE3 pIC50 (Rat NHE3): 5.60 | Urine Na % of control ([1]; dose 1 mg/kg): 58% | Urine Na % of control ([1]; dose 3 mg/kg): 40% | Urine Na % of control ([1]; dose 10 mg/kg): 12% | Urine P % of control ([2]; dose 1 mg/kg): 96% | Urine P % of control ([2]; dose 3 mg/kg): 89% | Urine P % of control ([2]; dose 10 mg/kg): 61% | Fecal Form Score average ([3]; dose 1 mg/kg): 1 | Fecal Form Score average ([3]; dose 3 mg/kg): 2 | Fecal Form Score average ([3]; dose 10 mg/kg): 3

CN1Cc2c(Cl)cc(Cl)cc2[C@H](c2cccc(S(=O)(=O)NCCOCCOCCNC(=O)NCCCN(CCCNC(=O)NCCOCCOCCNS(=O)(=O)c3cccc([C@@H]4CN(C)Cc5c(Cl)cc(Cl)cc54)c3)CCCNC(=O)NCCOCCOCCNS(=O)(=O)c3cccc([C@@H]4CN(C)Cc5c(Cl)cc(Cl)cc54)c3)c2)C1 [compound 77]
Prompt Human NHE3 pIC50 (Human NHE3): 7.35 | Prompt Rat NHE3 pIC50 (Rat NHE3): 6.25 | Urine Na % of control ([1]; dose 1 mg/kg): 80% | Urine Na % of control ([1]; dose 3 mg/kg): 36% | Urine Na % of control ([1]; dose 10 mg/kg): 17% | Urine P % of control ([2]; dose 1 mg/kg): 82% | Urine P % of control ([2]; dose 3 mg/kg): 79% | Urine P % of control ([2]; dose 10 mg/kg): 41% | Fecal Form Score average ([3]; dose 1 mg/kg): 2 | Fecal Form Score average ([3]; dose 3 mg/kg): 2 | Fecal Form Score average ([3]; dose 10 mg/kg): 4

CN1Cc2c(Cl)cc(Cl)cc2[C@H](c2cccc(S(=O)(=O)NCCOCCOCCNC(=O)CC(O)(CC(=O)NCCOCCOCCNS(=O)(=O)c3cccc([C@@H]4CN(C)Cc5c(Cl)cc(Cl)cc54)c3)C(=O)NCCOCCOCCNS(=O)(=O)c3cccc([C@@H]4CN(C)Cc5c(Cl)cc(Cl)cc54)c3)c2)C1 [compound 78]
Prompt Human NHE3 pIC50 (Human NHE3): 6.50 | Prompt Rat NHE3 pIC50 (Rat NHE3): 6.00 | Urine Na % of control ([1]; dose 10 mg/kg): 53% | Urine P % of control ([2]; dose 10 mg/kg): 39% | Fecal Form Score average ([3]; dose 10 mg/kg): 2

CN1Cc2c(Cl)cc(Cl)cc2[C@H](c2cccc(S(=O)(=O)NCCOCCOCCOCCNC(=O)CCN(CCC(=O)NCCOCCOCCOCCNS(=O)(=O)c3cccc([C@@H]4CN(C)Cc5c(Cl)cc(Cl)cc54)c3)CCC(=O)NCCOCCOCCOCCNS(=O)(=O)c3cccc([C@@H]4CN(C)Cc5c(Cl)cc(Cl)cc54)c3)c2)C1 [compound 79]
Prompt Human NHE3 pIC50 (Human NHE3): 7.20 | IC50 (Rat NHE3): 316 nM | Urine Na % of control ([1]; dose 1 mg/kg): 65% | Urine Na % of control ([1]; dose 3 mg/kg): 44% | Urine Na % of control ([1]; dose 10 mg/kg): 17% | Urine P % of control ([2]; dose 1 mg/kg): 109% | Urine P % of control ([2]; dose 3 mg/kg): 81% | Urine P % of control ([2]; dose 10 mg/kg): 33% | Fecal Form Score average ([3]; dose 1 mg/kg): 1 | Fecal Form Score average ([3]; dose 3 mg/kg): 2 | Fecal Form Score average ([3]; dose 10 mg/kg): 3

CN1Cc2c(Cl)cc(Cl)cc2[C@H](c2cccc(S(=O)(=O)NCCOCCOCCNC(=O)CCN(CCC(=O)NCCOCCOCCNS(=O)(=O)c3cccc([C@@H]4CN(C)Cc5c(Cl)cc(Cl)cc54)c3)CCC(=O)NCCOCCOCCNS(=O)(=O)c3cccc([C@@H]4CN(C)Cc5c(Cl)cc(Cl)cc54)c3)c2)C1 [compound 80]
Prompt Human NHE3 pIC50 (Human NHE3): 6.93 | Prompt Rat NHE3 pIC50 (Rat NHE3): 5.50 | Urine Na % of control ([1]; dose 1 mg/kg): 66% | Urine Na % of control ([1]; dose 3 mg/kg): 55% | Urine Na % of control ([1]; dose 10 mg/kg): 9% | Urine P % of control ([2]; dose 1 mg/kg): 70% | Urine P % of control ([2]; dose 3 mg/kg): 39% | Urine P % of control ([2]; dose 10 mg/kg): 21% | Fecal Form Score average ([3]; dose 1 mg/kg): 1 | Fecal Form Score average ([3]; dose 3 mg/kg): 2 | Fecal Form Score average ([3]; dose 10 mg/kg): 3

CN1Cc2c(Cl)cc(Cl)cc2[C@H](c2cccc(S(=O)(=O)NCCOCCOCCNC(=O)CN(CCN(CC(=O)O)CC(=O)NCCOCCOCCNS(=O)(=O)c3cccc([C@@H]4CN(C)Cc5c(Cl)cc(Cl)cc54)c3)CC(=O)O)c2)C1 [compound 81]
Prompt Human NHE3 pIC50 (Human NHE3): 7.90 | Prompt Rat NHE3 pIC50 (Rat NHE3): 7.90 | Urine Na % of control ([1]; dose 10 mg/kg): 11% | Urine P % of control ([2]; dose 10 mg/kg): 42% | Fecal Form Score average ([3]; dose 10 mg/kg): 2

CN1Cc2c(Cl)cc(Cl)cc2[C@H](c2cccc(S(=O)(=O)NCCOCCOCCNC(=O)NCCN(CCNC(=O)NCCOCCOCCNS(=O)(=O)c3cccc([C@@H]4CN(C)Cc5c(Cl)cc(Cl)cc54)c3)C(=O)CCCCCCCCCCC(=O)N(CCNC(=O)NCCOCCOCCNS(=O)(=O)c3cccc([C@@H]4CN(C)Cc5c(Cl)cc(Cl)cc54)c3)CCNC(=O)NCCOCCOCCNS(=O)(=O)c3cccc([C@@H]4CN(C)Cc5c(Cl)cc(Cl)cc54)c3)c2)C1 [compound 83]
Prompt Human NHE3 pIC50 (Human NHE3): <5.00 | Prompt Rat NHE3 pIC50 (Rat NHE3): <5.00 | Urine Na % of control ([1]; dose 10 mg/kg): 82% | Urine P % of control ([2]; dose 10 mg/kg): 59% | Fecal Form Score average ([3]; dose 10 mg/kg): 1

CN1Cc2c(Cl)cc(Cl)cc2[C@H](c2cccc(S(=O)(=O)NCCOCCOCCOCCNC(=O)CC(CC(=O)NCCOCCOCCOCCNS(=O)(=O)c3cccc([C@@H]4CN(C)Cc5c(Cl)cc(Cl)cc54)c3)C(=O)NCCOCCOCCOCCNS(=O)(=O)c3cccc([C@@H]4CN(C)Cc5c(Cl)cc(Cl)cc54)c3)c2)C1 [compound 84]
Prompt Human NHE3 pIC50 (Human NHE3): 7.70 | Prompt Rat NHE3 pIC50 (Rat NHE3): 7.50 | Urine Na % of control ([1]; dose 8 mg/kg): 7% | Urine P % of control ([2]; dose 8 mg/kg): 47% | Fecal Form Score average ([3]; dose 8 mg/kg): 3
